Values of other authors in patent US5281578A, “Gallium compounds” (Johnson Matthey Public Limited Company, priority 1992, dated 1994).
Like-named read-outs stand apart in the source and are kept apart here.

Columns and labels:
[1] = pH 4.5-7

Structure (SMILES)	absorption from the gastro-intestinal tract [1]	renal toxicity (renal toxicity; iv bolus)	renal toxicity (renal toxicity; seven day continuous iv infusion, cancer-associated hypercalcemia)
[Ga+3] [gallium(III) aquo-ion]	very poorly absorbed		
[Ga] [gallium]		dose-limiting	no renal toxicity
